System: patients with dry eye symptoms
Experiment: Clinical use of lipid composition applied to the eyelid margin for dry eye
Assay type: in vivo, human
Conditions: Patient No. 4; 1 percent non-preserved, two weeks
From the text: These patients were afflicted with meibomian gland dysfunction, various forms of dry eye syndrome, abnormal lids due to chemical burns, Stevens-Johnson syndrome, ocular pemphigoid, etc.

Compound `C[C@H]1C[C@@H]2[C@H]([C@@H](O)C[C@@]3(C)[C@H]2CC[C@]3(O)C(=O)CO)[C@@]2(C)C=CC(=O)C=C12` [methyl prednisolone] has an improvement of symptoms of 50%.

Source: US20070082017A1, “Lipid compositions and methods of use” (priority 2004, published 2007)
